Molecules are shown by their SMILES.

This note sets out measurements from PMC11233931, “Remodeling tumor‐associated macrophage for anti‐cancer effects by rational design of irreversible inhibition of mitogen‐activated protein kinase‐activated protein kinase 2” (MedComm, 2024).

Common to all, as to assay: Eurofins kinase selectivity profile against 380 other human recombinant kinases (Table S2)
Assay type in all cases: biochemical

Test [1] has as its target T1, 380 human recombinant protein kinases (Homo sapiens, UniProt P29320).
T1 construct: purchased Eurofins (Celle Lévescault)
T1 sequence (P29320 21-983): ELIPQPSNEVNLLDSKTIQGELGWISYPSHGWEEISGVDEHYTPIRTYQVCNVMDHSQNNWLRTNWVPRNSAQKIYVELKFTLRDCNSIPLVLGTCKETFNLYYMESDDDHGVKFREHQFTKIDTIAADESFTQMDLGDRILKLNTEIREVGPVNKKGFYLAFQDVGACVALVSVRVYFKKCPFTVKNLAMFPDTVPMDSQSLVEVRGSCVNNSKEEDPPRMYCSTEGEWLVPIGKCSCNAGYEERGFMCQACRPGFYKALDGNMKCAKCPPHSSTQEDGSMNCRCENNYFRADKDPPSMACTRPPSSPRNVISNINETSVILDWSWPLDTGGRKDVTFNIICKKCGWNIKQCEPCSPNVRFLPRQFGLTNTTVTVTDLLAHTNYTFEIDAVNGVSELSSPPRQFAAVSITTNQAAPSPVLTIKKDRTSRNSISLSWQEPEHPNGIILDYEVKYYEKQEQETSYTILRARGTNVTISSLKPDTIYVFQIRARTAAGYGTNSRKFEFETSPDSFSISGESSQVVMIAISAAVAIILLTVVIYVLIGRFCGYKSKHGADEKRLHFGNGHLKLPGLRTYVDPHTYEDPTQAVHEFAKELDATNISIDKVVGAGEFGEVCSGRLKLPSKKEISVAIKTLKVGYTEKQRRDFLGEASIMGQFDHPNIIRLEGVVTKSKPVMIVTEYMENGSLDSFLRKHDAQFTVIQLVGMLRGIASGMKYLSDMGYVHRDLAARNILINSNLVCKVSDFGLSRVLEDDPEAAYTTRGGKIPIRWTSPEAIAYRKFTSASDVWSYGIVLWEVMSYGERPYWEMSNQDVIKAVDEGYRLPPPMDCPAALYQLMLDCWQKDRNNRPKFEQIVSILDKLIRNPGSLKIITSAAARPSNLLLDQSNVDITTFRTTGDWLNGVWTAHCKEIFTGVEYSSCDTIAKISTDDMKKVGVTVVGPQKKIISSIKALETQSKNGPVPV
The following applies: EphA3(h), read-out: Inhibition rate. In outline: (§1)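 Commercial selectivity screen of the test compound against a panel of 380 human recombinant protein kinases, run by an outside contractor at several compound concentrations to check whether its potency was specific for MK2.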

In test [2] the target is T2, 380 human recombinant protein kinases (Homo sapiens, UniProt Q8IYT8).
T2 construct: purchased Eurofins (Celle Lévescault)
T2 sequence (Q8IYT8 1-1036): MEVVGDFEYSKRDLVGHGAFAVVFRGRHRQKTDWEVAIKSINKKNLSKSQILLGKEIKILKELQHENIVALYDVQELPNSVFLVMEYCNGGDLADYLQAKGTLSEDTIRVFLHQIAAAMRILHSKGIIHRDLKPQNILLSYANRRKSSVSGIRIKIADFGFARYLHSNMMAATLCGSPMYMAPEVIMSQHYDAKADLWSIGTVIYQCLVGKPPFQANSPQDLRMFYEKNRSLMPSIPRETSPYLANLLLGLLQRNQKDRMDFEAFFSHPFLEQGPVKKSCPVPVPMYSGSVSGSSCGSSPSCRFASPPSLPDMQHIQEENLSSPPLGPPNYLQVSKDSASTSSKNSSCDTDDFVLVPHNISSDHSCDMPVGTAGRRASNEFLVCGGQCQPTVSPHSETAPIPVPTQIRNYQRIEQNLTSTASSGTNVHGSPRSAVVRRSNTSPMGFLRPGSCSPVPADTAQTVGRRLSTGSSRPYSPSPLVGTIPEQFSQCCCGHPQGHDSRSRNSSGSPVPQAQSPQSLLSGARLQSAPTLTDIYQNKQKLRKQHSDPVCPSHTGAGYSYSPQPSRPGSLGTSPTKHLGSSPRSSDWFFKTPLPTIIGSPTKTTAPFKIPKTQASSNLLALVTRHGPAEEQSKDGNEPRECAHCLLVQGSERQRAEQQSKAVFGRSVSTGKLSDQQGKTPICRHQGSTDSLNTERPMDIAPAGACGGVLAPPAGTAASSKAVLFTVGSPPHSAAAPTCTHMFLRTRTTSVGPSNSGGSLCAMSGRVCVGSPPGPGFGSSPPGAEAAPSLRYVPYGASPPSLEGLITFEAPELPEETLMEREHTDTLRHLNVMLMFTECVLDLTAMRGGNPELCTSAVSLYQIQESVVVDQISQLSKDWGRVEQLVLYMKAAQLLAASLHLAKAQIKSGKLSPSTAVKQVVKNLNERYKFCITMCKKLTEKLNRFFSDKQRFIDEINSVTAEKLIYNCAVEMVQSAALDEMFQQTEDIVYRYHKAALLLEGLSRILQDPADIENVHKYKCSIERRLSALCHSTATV
The following applies: ULK2(h), read-out: Inhibition rate (%). In outline: as §1

In test [3] the target is T3, 380 human recombinant protein kinases (Homo sapiens, UniProt Q96QT4).
T3 construct: purchased Eurofins (Celle Lévescault)
T3 sequence (Q96QT4 whole entry): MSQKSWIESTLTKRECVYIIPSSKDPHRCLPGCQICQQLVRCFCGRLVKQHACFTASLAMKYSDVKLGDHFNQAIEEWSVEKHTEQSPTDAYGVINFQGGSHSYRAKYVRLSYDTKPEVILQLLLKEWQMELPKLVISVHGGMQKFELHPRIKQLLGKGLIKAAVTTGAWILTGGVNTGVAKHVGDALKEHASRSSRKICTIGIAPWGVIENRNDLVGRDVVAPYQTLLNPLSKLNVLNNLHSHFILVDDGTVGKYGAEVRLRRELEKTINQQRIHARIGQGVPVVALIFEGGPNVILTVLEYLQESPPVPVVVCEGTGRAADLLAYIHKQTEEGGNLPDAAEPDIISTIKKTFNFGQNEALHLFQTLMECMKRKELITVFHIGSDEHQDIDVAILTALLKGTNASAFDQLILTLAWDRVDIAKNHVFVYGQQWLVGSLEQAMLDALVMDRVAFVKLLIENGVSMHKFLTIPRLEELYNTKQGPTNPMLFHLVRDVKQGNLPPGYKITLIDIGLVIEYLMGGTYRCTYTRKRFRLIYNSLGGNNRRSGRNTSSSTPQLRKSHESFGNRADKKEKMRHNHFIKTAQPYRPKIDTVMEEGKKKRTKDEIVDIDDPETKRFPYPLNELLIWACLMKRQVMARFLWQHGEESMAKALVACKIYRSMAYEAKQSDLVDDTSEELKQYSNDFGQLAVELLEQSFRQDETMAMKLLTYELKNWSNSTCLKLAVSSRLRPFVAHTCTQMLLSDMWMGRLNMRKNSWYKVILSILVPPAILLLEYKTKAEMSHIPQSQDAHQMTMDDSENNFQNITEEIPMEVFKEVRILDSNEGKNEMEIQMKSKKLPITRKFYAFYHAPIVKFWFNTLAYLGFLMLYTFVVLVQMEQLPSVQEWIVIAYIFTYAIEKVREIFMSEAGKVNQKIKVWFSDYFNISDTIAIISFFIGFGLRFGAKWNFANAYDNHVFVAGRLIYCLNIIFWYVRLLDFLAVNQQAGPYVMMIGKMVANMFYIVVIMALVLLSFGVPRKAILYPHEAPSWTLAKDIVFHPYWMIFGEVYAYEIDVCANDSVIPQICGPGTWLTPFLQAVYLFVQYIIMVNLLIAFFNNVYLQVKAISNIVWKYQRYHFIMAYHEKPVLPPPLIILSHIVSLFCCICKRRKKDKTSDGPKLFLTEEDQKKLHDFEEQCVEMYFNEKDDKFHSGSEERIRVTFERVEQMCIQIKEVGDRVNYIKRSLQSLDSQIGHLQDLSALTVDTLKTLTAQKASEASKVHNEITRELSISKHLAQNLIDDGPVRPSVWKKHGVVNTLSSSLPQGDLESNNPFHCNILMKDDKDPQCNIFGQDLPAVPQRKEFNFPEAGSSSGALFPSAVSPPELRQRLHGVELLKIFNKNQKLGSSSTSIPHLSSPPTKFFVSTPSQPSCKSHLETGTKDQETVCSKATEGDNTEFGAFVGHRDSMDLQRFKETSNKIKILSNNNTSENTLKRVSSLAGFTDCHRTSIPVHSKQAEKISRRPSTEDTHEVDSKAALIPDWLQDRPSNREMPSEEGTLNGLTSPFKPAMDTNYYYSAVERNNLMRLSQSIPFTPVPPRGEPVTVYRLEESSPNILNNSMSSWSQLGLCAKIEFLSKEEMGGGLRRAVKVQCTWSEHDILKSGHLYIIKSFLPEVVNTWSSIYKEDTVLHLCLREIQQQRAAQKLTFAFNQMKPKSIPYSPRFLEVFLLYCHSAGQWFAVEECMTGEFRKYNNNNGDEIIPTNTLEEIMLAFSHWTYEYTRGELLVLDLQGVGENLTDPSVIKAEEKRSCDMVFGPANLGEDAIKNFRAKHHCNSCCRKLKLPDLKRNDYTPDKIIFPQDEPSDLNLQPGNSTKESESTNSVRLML
The following applies: ChaK1(h), read-out: Inhibition rate. The method in brief:
as §1

For test [4], the target named is T4, 380 human recombinant protein kinases (Homo sapiens, UniProt Q9BYP7).
T4 construct: purchased Eurofins (Celle Lévescault)
T4 sequence (Q9BYP7 whole entry): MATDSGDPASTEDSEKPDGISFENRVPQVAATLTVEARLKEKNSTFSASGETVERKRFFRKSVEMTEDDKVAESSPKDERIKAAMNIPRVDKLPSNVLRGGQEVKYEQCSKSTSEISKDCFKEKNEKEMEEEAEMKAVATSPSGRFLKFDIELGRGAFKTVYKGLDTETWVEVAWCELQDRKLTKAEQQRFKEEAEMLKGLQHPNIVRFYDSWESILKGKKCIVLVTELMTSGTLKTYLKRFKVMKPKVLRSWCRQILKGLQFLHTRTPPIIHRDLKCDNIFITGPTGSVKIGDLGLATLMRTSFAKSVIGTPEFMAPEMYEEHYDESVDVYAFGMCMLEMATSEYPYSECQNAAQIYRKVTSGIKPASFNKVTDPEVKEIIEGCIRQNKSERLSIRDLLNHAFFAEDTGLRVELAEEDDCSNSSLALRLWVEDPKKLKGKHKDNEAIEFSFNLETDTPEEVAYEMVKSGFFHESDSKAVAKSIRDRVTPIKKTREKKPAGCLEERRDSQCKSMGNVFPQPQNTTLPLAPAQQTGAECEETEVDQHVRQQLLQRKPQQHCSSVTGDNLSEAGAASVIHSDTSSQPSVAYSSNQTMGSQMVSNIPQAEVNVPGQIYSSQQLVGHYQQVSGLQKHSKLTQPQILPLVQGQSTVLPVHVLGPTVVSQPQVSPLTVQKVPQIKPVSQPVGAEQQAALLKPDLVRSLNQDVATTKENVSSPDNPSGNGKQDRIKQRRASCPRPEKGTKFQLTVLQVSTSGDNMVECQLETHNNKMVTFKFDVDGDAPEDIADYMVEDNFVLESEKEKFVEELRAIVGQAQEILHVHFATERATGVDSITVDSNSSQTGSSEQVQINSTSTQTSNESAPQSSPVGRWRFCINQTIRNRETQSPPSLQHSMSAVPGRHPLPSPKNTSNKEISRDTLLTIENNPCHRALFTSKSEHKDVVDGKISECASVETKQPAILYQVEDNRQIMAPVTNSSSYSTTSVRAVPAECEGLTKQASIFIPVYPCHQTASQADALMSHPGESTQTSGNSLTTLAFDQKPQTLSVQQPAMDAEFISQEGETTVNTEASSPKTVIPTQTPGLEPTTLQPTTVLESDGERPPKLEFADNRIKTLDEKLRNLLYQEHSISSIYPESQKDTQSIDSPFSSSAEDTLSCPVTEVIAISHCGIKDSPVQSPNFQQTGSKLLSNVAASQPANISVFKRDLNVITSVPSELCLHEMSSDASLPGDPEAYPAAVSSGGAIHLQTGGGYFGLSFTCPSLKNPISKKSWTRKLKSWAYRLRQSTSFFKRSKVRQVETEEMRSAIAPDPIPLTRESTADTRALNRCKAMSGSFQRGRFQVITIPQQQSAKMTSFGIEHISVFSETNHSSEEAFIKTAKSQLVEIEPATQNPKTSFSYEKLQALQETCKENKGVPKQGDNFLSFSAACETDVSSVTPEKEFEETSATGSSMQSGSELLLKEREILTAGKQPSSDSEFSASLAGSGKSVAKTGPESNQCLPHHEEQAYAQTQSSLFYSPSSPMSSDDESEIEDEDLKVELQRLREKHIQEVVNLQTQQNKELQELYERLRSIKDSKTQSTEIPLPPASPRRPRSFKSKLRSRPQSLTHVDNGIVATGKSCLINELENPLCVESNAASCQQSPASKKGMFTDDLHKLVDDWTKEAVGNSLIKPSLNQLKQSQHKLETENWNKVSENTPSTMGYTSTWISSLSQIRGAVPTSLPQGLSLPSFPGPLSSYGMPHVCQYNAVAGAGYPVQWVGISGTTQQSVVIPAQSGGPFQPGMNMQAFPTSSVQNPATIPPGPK
The following applies: WNK3(h), read-out: Inhibition rate (%). The method in brief:
as §1

Test [5] has as its target T5, 380 human recombinant protein kinases (Homo sapiens, UniProt Q9NYL2).
T5 construct: purchased Eurofins (Celle Lévescault)
The following applies: ZAK(h), read-out: Inhibition rate (%). In outline: as §1

T5 sequence (Q9NYL2 whole entry): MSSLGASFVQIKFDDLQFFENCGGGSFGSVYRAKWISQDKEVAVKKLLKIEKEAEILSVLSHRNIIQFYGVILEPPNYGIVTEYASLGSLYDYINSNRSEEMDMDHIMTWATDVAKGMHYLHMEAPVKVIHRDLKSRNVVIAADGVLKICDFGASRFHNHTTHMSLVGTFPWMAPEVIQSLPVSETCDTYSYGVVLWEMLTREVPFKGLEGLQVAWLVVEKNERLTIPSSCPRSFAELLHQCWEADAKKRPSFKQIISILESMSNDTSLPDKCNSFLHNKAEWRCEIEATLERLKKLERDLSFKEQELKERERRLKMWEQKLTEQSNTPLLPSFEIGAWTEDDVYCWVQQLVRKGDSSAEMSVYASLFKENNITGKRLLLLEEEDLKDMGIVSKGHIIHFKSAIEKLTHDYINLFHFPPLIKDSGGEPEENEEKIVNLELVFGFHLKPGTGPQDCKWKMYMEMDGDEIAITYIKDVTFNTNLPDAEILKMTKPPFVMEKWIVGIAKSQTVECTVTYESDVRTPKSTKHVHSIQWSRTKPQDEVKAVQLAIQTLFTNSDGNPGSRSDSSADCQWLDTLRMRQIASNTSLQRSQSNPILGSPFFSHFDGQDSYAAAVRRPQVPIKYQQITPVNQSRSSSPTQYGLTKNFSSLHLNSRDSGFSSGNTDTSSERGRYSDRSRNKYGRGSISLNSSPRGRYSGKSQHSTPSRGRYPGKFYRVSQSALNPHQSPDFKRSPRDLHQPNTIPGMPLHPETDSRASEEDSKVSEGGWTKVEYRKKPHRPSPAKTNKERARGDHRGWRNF

Regarding `C=CC(=O)Nc1cc(-c2cc(-c3cc4c([nH]3)CCNC4=O)ccn2)ccc1OC(F)(F)F` [compound 11], the inhibition at 0.01 µM was 15% in test [1] (10 nM); 6% in test [2] (10 nM); -7% in test [3] (10 nM); 0% in test [4] (10 nM); -3% in test [5] (10 nM). Besides, the inhibition at 0.1 µM in test [1] (100 nM) was -1%; in test [2] (100 nM), 6%; in test [3] (100 nM) it was 1%; in test [4] (100 nM), 7%; in test [5] (100 nM) it was -1%. The inhibition at 1 µM in test [1] (1000 nM) was -10%; in test [2] (1000 nM) it was 5%; in test [3] (1000 nM) it was -5%; in test [4] (1000 nM), 9%; in test [5] (1000 nM), 1%.
